Assay type in all cases: cell-based
In assay [1] the test system is Streptococcus pyogenes 1079. The assay can be described thus: MIC, microtiter broth dilution (NCCLS M100-S14), S. pyogenes 1079 (ermB). An outline of the steps: (§1)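 Where available, resistant strains were tested alongside the susceptible parent they derive from. The MIC, determined by tray-based broth dilution and NCCLS M100-S14 interpretation, served as the comparison value.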
On the technique in general: In broth dilution the organism is exposed to a series of concentrations in liquid medium.

The subject of assay [2] is Haemophilus influenzae 1218. Put plainly: MIC, microtiter broth dilution (NCCLS M100-S14), H. influenzae 1218 (susceptible). An outline of the steps:
as §1

The test system of assay [3] is Streptococcus pneumoniae 1016. Put plainly: MIC, microtiter broth dilution (NCCLS M100-S14), S. pneumoniae 1016 (susceptible). An outline of the steps: as §1
Assay [4] concerns Streptococcus pneumoniae 1095. As to conditions: microtiter broth dilution. An outline of the steps:
as §1

In assay [5] the test system is Streptococcus pneumoniae 1175. The note with it: microtiter broth dilution. In outline: as §1
The mark [6] stands for this setting: H. influenzae 1218 (susceptible).
[7] abbreviates: S. pneumoniae 1016 (susceptible).

SMILES strings stand for the structures. In brackets after ≈: the same amount, converted by molar mass. Where two headings read alike, the source gives them in different places.

In the case of `CCC1OC(=O)C(C)C(=O)C(C)C(OC2OC(C)CC(N(C)C)C2O)C(C)(OC)CC(C)C(=O)C(C)C2N(C3CN(S(=O)(=O)c4c(C)noc4C)C3)C(=O)OC12C` (stereo not drawn) [Example 3.32, 3,5-dimethylisoxazole-4-sulfonyl], the “MIC S. pyogenes 1079” value in assay [1] (Streptococcus pyogenes 1079) came out at 32 µg/mL (≈ 38.7 µM). Moreover, the “MIC H. influenzae 1218” value in assay [2] (Haemophilus influenzae 1218) came to 2 µg/mL (≈ 2.42 µM). In assay [3] (Streptococcus pneumoniae 1016), the “MIC S. pneumo. 1016” value was below 0.06 µg/mL. Moreover, in assay [4] (Streptococcus pneumoniae 1095), the “MIC S. pneumo. 1095” value came out at 0.5 µg/mL (≈ 0.605 µM). Also, in assay [5] (Streptococcus pneumoniae 1175), the “MIC S. pneumo. 1175” value came to 0.12 µg/mL (≈ 0.145 µM).

Turning to `CCC1OC(=O)C(C)C(=O)C(C)C(OC2OC(C)CC(N(C)C)C2O)C(C)(OC)CC(C)C(=O)C(C)C2N(C3CN(S(=O)(=O)c4ccc(-n5cccn5)c(F)c4)C3)C(=O)OC12C` (stereo not drawn) [Example 3.86, 3-descladinosyl-11,12-dideoxy-6-O-methyl-3-oxo-12,11-(oxycarbonyl-(1-(3-fluoro-4-(1H-pyrazol-1-yl)benzenesulfonyl)-azetidin-3-yl)-imino)-erythromycin A], the “MIC S. pyogenes 1079” value in assay [1] (Streptococcus pyogenes 1079) is 1 µg/mL (≈ 1.12 µM). Further, the “MIC H. influenzae 1218” value in assay [2] (Haemophilus influenzae 1218) is 1 µg/mL (≈ 1.12 µM). Besides, the “MIC S. pneumo. 1016” value in assay [3] (Streptococcus pneumoniae 1016) is below 0.06 µg/mL. In addition, in assay [4] (Streptococcus pneumoniae 1095), the “MIC S. pneumo. 1095” value was below 0.06 µg/mL. Also, the “MIC S. pneumo. 1175” value in assay [5] (Streptococcus pneumoniae 1175) is below 0.06 µg/mL.

Regarding `CCC1OC(=O)C(C)C(=O)C(C)C(OC2OC(C)CC(N(C)C)C2O)C(C)(OC)CC(C)C(=O)C(C)C2N(CC3CN(Cc4ccc5nccn5c4)C3)C(=O)OC12C` (stereo not drawn) [4.25], the “MIC S. pyogenes 1079” value in assay [1] (Streptococcus pyogenes 1079) stood at 64 µg/mL (≈ 78.8 µM). The “MIC H. influenzae 1218” value in assay [2] (Haemophilus influenzae 1218) stood at 0.62 µg/mL (≈ 0.764 µM). For the same compound, in assay [3] (Streptococcus pneumoniae 1016), the “MIC S. pneumo. 1016” value was below 0.06 µg/mL. Besides, the “MIC S. pneumo. 1095” value in assay [4] (Streptococcus pneumoniae 1095) turned out to be 0.38 µg/mL (≈ 0.468 µM). In addition, the “MIC S. pneumo. 1175” value in assay [5] (Streptococcus pneumoniae 1175) was 0.31 µg/mL (≈ 0.382 µM).

Take `CCC1OC(=O)C(C)C(=O)C(C)C(OC2OC(C)CC(N(C)C)C2O)C(C)(OC)CC(C)C(=O)C(C)C2N(CC3CCN(C(=O)c4cc5cccnc5[nH]4)C3)C(=O)OC12C` (stereo not drawn) [13.15]: in assay [1] (S. pyogenes 1079 (ermB)), the “MIC S. pyogenes 1079” value is above 64.00 µg/mL. For the same compound, the “MIC H. influenzae 1218” value in assay [2] (setting [6]) came to 4 µg/mL (≈ 4.76 µM). Besides, the “MIC S. pneumo. 1016” value in assay [3] (setting [7]) was below 0.06 µg/mL. Besides, the “MIC S. pneumo. 1095” value in assay [4] (S. pneumoniae 1095 (ermB)) stood at 2 µg/mL (≈ 2.38 µM). In assay [5] (S. pneumoniae 1175 (mefA)), the “MIC S. pneumo. 1175” value worked out at 0.12 µg/mL (≈ 0.143 µM).

Regarding `CCC1OC(=O)C(C)C(=O)C(C)C(OC2OC(C)CC(N(C)C)C2O)C(C)(OC)CC(C)C(=O)C(C)C2N(C3CN(Cc4c(OC)ccc5ccccc45)C3)C(=O)OC12C` (stereo not drawn) [Example 1.86, 3-descladinosyl-11,12-dideoxy-6-O-methyl-3-oxo-12,11-(oxycarbonyl-(1-(2-methoxynaphthalene-1-methyl)-azetidin-3-yl)-imino)-erythromycin A], the “MIC S. pyogenes 1079” value in assay [1] (Streptococcus pyogenes 1079) amounted to 1 µg/mL (≈ 1.19 µM). Besides, in assay [2] (Haemophilus influenzae 1218), the “MIC H. influenzae 1218” value stood at 1 µg/mL (≈ 1.19 µM). Also, the “MIC S. pneumo. 1016” value in assay [3] (Streptococcus pneumoniae 1016) is below 0.063 µg/mL. In assay [4] (Streptococcus pneumoniae 1095), the “MIC S. pneumo. 1095” value worked out at 0.125 µg/mL (≈ 0.149 µM). In addition, the “MIC S. pneumo. 1175” value in assay [5] (Streptococcus pneumoniae 1175) is below 0.063 µg/mL.

For the compound `CCC1OC(=O)C(C)C(=O)C(C)C(OC2OC(C)CC(N(C)C)C2O)C(C)(OC)CC(C)C(=O)C(C)C2N(C3CN(S(=O)(=O)c4ccc(-n5nc(C)cc5C)cc4)C3)C(=O)OC12C` (stereo not drawn) [Example 3.47, 4-(3,5-dimethyl-1H-pyrazol-1-yl)benzenesulfonyl], the “MIC S. pyogenes 1079” value in assay [1] (Streptococcus pyogenes 1079) is 64 µg/mL (≈ 70.9 µM). Further, in assay [2] (Haemophilus influenzae 1218), the “MIC H. influenzae 1218” value came to 8 µg/mL (≈ 8.87 µM). Further, the “MIC S. pneumo. 1016” value in assay [3] (Streptococcus pneumoniae 1016) is below 0.06 µg/mL. Also, the “MIC S. pneumo. 1095” value in assay [4] (Streptococcus pneumoniae 1095) came out at 0.5 µg/mL (≈ 0.554 µM). Also, the “MIC S. pneumo. 1175” value in assay [5] (Streptococcus pneumoniae 1175) is below 0.06 µg/mL.

`CCC1OC(=O)C(C)C(=O)C(C)C(OC2OC(C)CC(N(C)C)C2O)C(C)(OC)CC(C)C(=O)C(C)C2N(CC3CCCN3C(=O)c3ccc(C)[nH]c3=O)C(=O)OC12C` (stereo not drawn) [10.48]: the “MIC S. pyogenes 1079” value in assay [1] (S. pyogenes 1079 (ermB)) is above 64.00 µg/mL. For the same compound, the “MIC H. influenzae 1218” value in assay [2] (setting [6]) turned out to be 1 µg/mL (≈ 1.2 µM). Further, the “MIC S. pneumo. 1016” value in assay [3] (setting [7]) was below 0.06 µg/mL. Moreover, the “MIC S. pneumo. 1095” value in assay [4] (S. pneumoniae 1095 (ermB)) was determined as 4 µg/mL (≈ 4.81 µM). Besides, in assay [5] (S. pneumoniae 1175 (mefA)), the “MIC S. pneumo. 1175” value amounted to 0.5 µg/mL (≈ 0.602 µM).

`CCC1OC(=O)C(C)C(=O)C(C)C(OC2OC(C)CC(N(C)C)C2O)C(C)(OC)CC(C)C(=O)C(C)C2N(CC3CN(C(=O)c4cnc5ccccc5c4)C3)C(=O)OC12C.O=CO` (stereo not drawn) [4.38]: the “MIC S. pyogenes 1079” value in assay [1] (Streptococcus pyogenes 1079) is above 64.00 µg/mL. For the same compound, in assay [2] (Haemophilus influenzae 1218), the “MIC H. influenzae 1218” value came out at 2 µg/mL. The “MIC S. pneumo. 1016” value in assay [3] (Streptococcus pneumoniae 1016) was below 0.06 µg/mL. The “MIC S. pneumo. 1095” value in assay [4] (Streptococcus pneumoniae 1095) came to 2 µg/mL. Moreover, the “MIC S. pneumo. 1175” value in assay [5] (Streptococcus pneumoniae 1175) was below 0.06 µg/mL.

Turning to `CCC1OC(=O)C(C)C(=O)C(C)C(OC2OC(C)CC(N(C)C)C2O)C(C)(OC)CC(C)C(=O)C(C)C2N(CC3CCCN3C(=O)c3cnc4ccccc4c3)C(=O)OC12C` (stereo not drawn) [10.07], the “MIC S. pyogenes 1079” value in assay [1] (S. pyogenes 1079 (ermB)) was above 64.00 µg/mL. Also, the “MIC H. influenzae 1218” value in assay [2] (setting [6]) came to 2 µg/mL (≈ 2.35 µM). In assay [3] (setting [7]), the “MIC S. pneumo. 1016” value was below 0.06 µg/mL. Also, the “MIC S. pneumo. 1095” value in assay [4] (S. pneumoniae 1095 (ermB)) is below 0.06 µg/mL. Further, the “MIC S. pneumo. 1175” value in assay [5] (S. pneumoniae 1175 (mefA)) is 0.25 µg/mL (≈ 0.294 µM).

The record behind these values is patent publication US7462600B2, “Macrolides” (Pfizer Inc, priority 2004, dated 2008).
